Test results from patent US20150105252A1, “SUBSTITUTED PYRAZOLES AS HERBICIDES” (E I DU PONT DE NEMOURS AND COMPANY, priority 2013, published 2015).

What was measured:
waterhemp = experiment: Test C preemergence; assay type: in vivo, Amaranthus rudis; details: for Plant response rating (scale of 0 to 100), Waterhemp: Preemergence, 250 g ai/ha; for Waterhemp plant response rating / Plant response rating, Waterhemp: preemergence, 13 to 15 days; for Waterhemp plant response rating: scale 0 to 100 (0 no effect, 100 complete control); for Plant response rating, Waterhemp: 125 g ai/ha, scale 0 to 100, 0 = no effect, 100 = complete control
Summary of the method: (§1)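 Postemergence values come from plants sprayed at the 1- to 4-leaf stage (2–18 cm) in peat moss–vermiculite medium; preemergence values from seeds treated in a loam–sand blend. Both evaluated visually against controls after 13–15 greenhouse days, scale 0–100.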

galium = experiment: Test C preemergence; assay type: in vivo, Galium aparine; details: for Plant response rating (scale of 0 to 100), Galium: Preemergence, 250 g ai/ha; for Galium plant response rating / Plant response rating, Galium: preemergence, 13 to 15 days; for Galium plant response rating: scale 0 to 100 (0 no effect, 100 complete control); for Plant response rating, Galium: 125 g ai/ha, scale 0 to 100, 0 = no effect, 100 = complete control
Summary of the method: as §1

wheat [1] = experiment: Test C preemergence; assay type: in vivo, Triticum aestivum; details: for Plant response rating (scale of 0 to 100), Wheat: Preemergence, 250 g ai/ha; for Wheat plant response rating / Plant response rating, Wheat: preemergence, 13 to 15 days; for Wheat plant response rating: scale 0 to 100 (0 no effect, 100 complete control); for Plant response rating, Wheat: 125 g ai/ha, scale 0 to 100, 0 = no effect, 100 = complete control
Summary of the method: as §1

corn = experiment: Test C preemergence; assay type: in vivo, Zea mays; details: for Plant response rating (scale of 0 to 100), Corn: Preemergence, 250 g ai/ha; for Corn plant response rating / Plant response rating, Corn: preemergence, 13 to 15 days; for Corn plant response rating: scale 0 to 100 (0 no effect, 100 complete control); for Plant response rating, Corn: 125 g ai/ha, scale 0 to 100, 0 = no effect, 100 = complete control
Summary of the method: as §1

johnsongrass = experiment: Test C postemergence; assay type: in vivo, Sorghum halepense; details: for Plant response rating (scale of 0 to 100 where 0 is no effect and 100 is complete control), Johnsongrass: Postemergence, 31 g ai/ha, visually evaluated after 13 to 15 days; for Johnsongrass plant response rating / Plant response rating, Johnsongrass: postemergence; for Johnsongrass plant response rating: 62 g ai/ha, scale 0 to 100
Summary of the method: as §1

wheat [2] = experiment: Test C postemergence; assay type: in vivo, Triticum aestivum; details: for Plant response rating (scale of 0 to 100 where 0 is no effect and 100 is complete control), Wheat: Postemergence, 31 g ai/ha, visually evaluated after 13 to 15 days; for Wheat plant response rating / Plant response rating, Wheat: postemergence; for Wheat plant response rating: 62 g ai/ha, scale 0 to 100
Summary of the method: as §1

lambsquarters = experiment: Test C postemergence; assay type: in vivo, Chenopodium album; details: for Plant response rating (scale of 0 to 100 where 0 is no effect and 100 is complete control), Lambsquarters: Postemergence, 31 g ai/ha, visually evaluated after 13 to 15 days; for Lambsquarters plant response rating / Plant response rating, Lambsquarters: postemergence; for Lambsquarters plant response rating: 62 g ai/ha, scale 0 to 100
Summary of the method: as §1

oilseed rape = experiment: Test C preemergence; assay type: in vivo, Brassica napus; details: for Plant response rating (scale of 0 to 100), Oilseed Rape: Preemergence, 250 g ai/ha; for Oilseed Rape plant response rating / Plant response rating, Oilseed Rape: preemergence, 13 to 15 days; for Oilseed Rape plant response rating: scale 0 to 100 (0 no effect, 100 complete control); for Plant response rating, Oilseed Rape: 125 g ai/ha, scale 0 to 100, 0 = no effect, 100 = complete control
Summary of the method: as §1

pigweed = experiment: Test C preemergence; assay type: in vivo, Amaranthus retroflexus; details: for Plant response rating (scale of 0 to 100), Pigweed: Preemergence, 250 g ai/ha; for Pigweed plant response rating / Plant response rating, Pigweed: preemergence, 13 to 15 days; for Pigweed plant response rating: scale 0 to 100 (0 no effect, 100 complete control); for Plant response rating, Pigweed: 125 g ai/ha, scale 0 to 100, 0 = no effect, 100 = complete control
Summary of the method: as §1

chickweed = experiment: Test C postemergence; assay type: in vivo, Stellaria media; details: for Plant response rating (scale of 0 to 100 where 0 is no effect and 100 is complete control), Chickweed: Postemergence, 31 g ai/ha, visually evaluated after 13 to 15 days; for Chickweed plant response rating / Plant response rating, Chickweed: postemergence; for Chickweed plant response rating: 62 g ai/ha, scale 0 to 100
Summary of the method: as §1

blackgrass = experiment: Test C preemergence; assay type: in vivo, Alopecurus myosuroides; details: for Plant response rating (scale of 0 to 100), Blackgrass: Preemergence, 250 g ai/ha; for Blackgrass plant response rating / Plant response rating, Blackgrass: preemergence, 13 to 15 days; for Blackgrass plant response rating: scale 0 to 100 (0 no effect, 100 complete control); for Plant response rating, Blackgrass: 125 g ai/ha, scale 0 to 100, 0 = no effect, 100 = complete control
Summary of the method: as §1

ragweed = experiment: Test C preemergence; assay type: in vivo, Ambrosia elation; details: for Plant response rating (scale of 0 to 100), Ragweed: Preemergence, 250 g ai/ha; for Ragweed plant response rating / Plant response rating, Ragweed: preemergence, 13 to 15 days; for Ragweed plant response rating: scale 0 to 100 (0 no effect, 100 complete control); for Plant response rating, Ragweed: 125 g ai/ha, scale 0 to 100, 0 = no effect, 100 = complete control
Summary of the method: as §1

foxtail, giant = experiment: Test C postemergence; assay type: in vivo, Setaria faberii; details: for Plant response rating (scale of 0 to 100 where 0 is no effect and 100 is complete control), Foxtail, Giant: Postemergence, 31 g ai/ha, visually evaluated after 13 to 15 days; for Foxtail, Giant plant response rating / Plant response rating, Foxtail, Giant: postemergence; for Foxtail, Giant plant response rating: 62 g ai/ha, scale 0 to 100
Summary of the method: as §1

soybean = experiment: Test C preemergence; assay type: in vivo, Glycine max; details: for Plant response rating (scale of 0 to 100), Soybean: Preemergence, 250 g ai/ha; for Soybean plant response rating / Plant response rating, Soybean: preemergence, 13 to 15 days; for Soybean plant response rating: scale 0 to 100 (0 no effect, 100 complete control); for Plant response rating, Soybean: 125 g ai/ha, scale 0 to 100, 0 = no effect, 100 = complete control
Summary of the method: as §1

[3] = 250 g ai/ha, scale 0 to 100 (0 no effect, 100 complete control)
[4] = 125 g ai/ha, scale 0 to 100, 0 no effect, 100 complete control

CCCc1cc(C(=O)NCC(F)(F)F)nn1Cc1ccnc(OC(F)F)c1 [Compound 127]
15: Ragweed plant response rating (ragweed; 31 g ai/ha, visual rating) | Foxtail, Giant plant response rating (foxtail, giant) | Plant response rating, Foxtail, Giant (foxtail, giant; [4])
20: Blackgrass plant response rating (blackgrass; 31 g ai/ha, visual rating)
75: Plant response rating (scale of 0 to 100 where 0 is no effect and 100 is complete control), Chickweed (chickweed)
60: Blackgrass plant response rating (blackgrass; 62 g ai/ha) | Plant response rating, Blackgrass (blackgrass) | Plant response rating, Ragweed (ragweed)
5: Wheat plant response rating (wheat [1]; 31 g ai/ha, visual rating) | Corn plant response rating (corn; 31 g ai/ha, visual rating) | Plant response rating (scale of 0 to 100 where 0 is no effect and 100 is complete control), Johnsongrass (johnsongrass) | Johnsongrass plant response rating (johnsongrass) | Plant response rating (scale of 0 to 100 where 0 is no effect and 100 is complete control), Wheat (wheat [2]) | Wheat plant response rating (wheat [2]) | Plant response rating, Wheat (wheat [2]; [4])
10: Plant response rating, Wheat (wheat [2]; [3]) | Plant response rating (scale of 0 to 100 where 0 is no effect and 100 is complete control), Foxtail, Giant (foxtail, giant)
65: Plant response rating, Corn (corn) | Plant response rating (scale of 0 to 100 where 0 is no effect and 100 is complete control), Lambsquarters (lambsquarters) | Plant response rating, Soybean (soybean)
85: Plant response rating (scale of 0 to 100), Wheat (wheat [1]) | Plant response rating, Wheat (wheat [1]) | Plant response rating, Lambsquarters (lambsquarters; [3]) | Plant response rating, Lambsquarters (lambsquarters; [4]) | Oilseed Rape plant response rating (oilseed rape; 31 g ai/ha, visual rating) | Plant response rating (scale of 0 to 100), Blackgrass (blackgrass) | Plant response rating (scale of 0 to 100), Soybean (soybean)
40: Wheat plant response rating (wheat [1]; 62 g ai/ha)
35: Plant response rating, Foxtail, Giant (foxtail, giant; [3])
25: Corn plant response rating (corn; 62 g ai/ha) | Plant response rating, Johnsongrass (johnsongrass; [3]) | Ragweed plant response rating (ragweed; 62 g ai/ha)
45: Plant response rating (scale of 0 to 100), Corn (corn) | Soybean plant response rating (soybean; 62 g ai/ha)
100: Plant response rating (scale of 0 to 100), Waterhemp (waterhemp) | Waterhemp plant response rating (waterhemp; 31 g ai/ha, visual rating) | Waterhemp plant response rating (waterhemp; 62 g ai/ha) | Plant response rating, Waterhemp (waterhemp) | Plant response rating (scale of 0 to 100), Galium (galium) | Galium plant response rating (galium; 62 g ai/ha) | Plant response rating, Galium (galium) | Plant response rating (scale of 0 to 100), Oilseed Rape (oilseed rape) | Oilseed Rape plant response rating (oilseed rape; 62 g ai/ha) | Plant response rating, Oilseed Rape (oilseed rape) | Plant response rating (scale of 0 to 100), Pigweed (pigweed) | Pigweed plant response rating (pigweed; 31 g ai/ha, visual rating) | Pigweed plant response rating (pigweed; 62 g ai/ha) | Plant response rating, Pigweed (pigweed)
80: Galium plant response rating (galium; 31 g ai/ha, visual rating) | Lambsquarters plant response rating (lambsquarters) | Chickweed plant response rating (chickweed) | Plant response rating, Chickweed (chickweed; [3]) | Plant response rating, Chickweed (chickweed; [4])
30: Plant response rating, Johnsongrass (johnsongrass; [4]) | Soybean plant response rating (soybean; 31 g ai/ha, visual rating)
90: Plant response rating (scale of 0 to 100), Ragweed (ragweed)

CCOc1cc(C(=O)NCC(F)(F)F)nn1Cc1ccnc(OC(F)F)c1 [Compound 128]
100: Plant response rating (scale of 0 to 100), Waterhemp (waterhemp) | Waterhemp plant response rating (waterhemp; 31 g ai/ha, visual rating) | Waterhemp plant response rating (waterhemp; 62 g ai/ha) | Plant response rating, Waterhemp (waterhemp) | Plant response rating (scale of 0 to 100), Galium (galium) | Plant response rating, Galium (galium) | Plant response rating (scale of 0 to 100), Oilseed Rape (oilseed rape) | Oilseed Rape plant response rating (oilseed rape; 31 g ai/ha, visual rating) | Oilseed Rape plant response rating (oilseed rape; 62 g ai/ha) | Plant response rating, Oilseed Rape (oilseed rape) | Plant response rating (scale of 0 to 100), Pigweed (pigweed) | Pigweed plant response rating (pigweed; 31 g ai/ha, visual rating) | Pigweed plant response rating (pigweed; 62 g ai/ha) | Plant response rating, Pigweed (pigweed)
95: Plant response rating, Lambsquarters (lambsquarters; [4]) | Plant response rating, Chickweed (chickweed; [3])
5: Plant response rating (scale of 0 to 100 where 0 is no effect and 100 is complete control), Johnsongrass (johnsongrass) | Johnsongrass plant response rating (johnsongrass) | Plant response rating, Johnsongrass (johnsongrass; [4]) | Plant response rating (scale of 0 to 100 where 0 is no effect and 100 is complete control), Wheat (wheat [2]) | Wheat plant response rating (wheat [2]) | Plant response rating, Wheat (wheat [2]; [3]) | Plant response rating (scale of 0 to 100 where 0 is no effect and 100 is complete control), Foxtail, Giant (foxtail, giant)
45: Corn plant response rating (corn; 62 g ai/ha)
35: Soybean plant response rating (soybean; 31 g ai/ha, visual rating)
10: Plant response rating, Johnsongrass (johnsongrass; [3]) | Plant response rating, Wheat (wheat [2]; [4]) | Foxtail, Giant plant response rating (foxtail, giant)
55: Soybean plant response rating (soybean; 62 g ai/ha)
80: Galium plant response rating (galium; 31 g ai/ha, visual rating) | Galium plant response rating (galium; 62 g ai/ha) | Lambsquarters plant response rating (lambsquarters) | Plant response rating, Soybean (soybean)
25: Ragweed plant response rating (ragweed; 31 g ai/ha, visual rating) | Plant response rating, Foxtail, Giant (foxtail, giant; [4])
50: Blackgrass plant response rating (blackgrass; 31 g ai/ha, visual rating)
75: Chickweed plant response rating (chickweed)
30: Wheat plant response rating (wheat [1]; 62 g ai/ha)
60: Plant response rating (scale of 0 to 100 where 0 is no effect and 100 is complete control), Lambsquarters (lambsquarters)
65: Plant response rating, Corn (corn) | Ragweed plant response rating (ragweed; 62 g ai/ha)
15: Corn plant response rating (corn; 31 g ai/ha, visual rating)
98: Plant response rating, Lambsquarters (lambsquarters; [3])
90: Plant response rating (scale of 0 to 100), Blackgrass (blackgrass) | Blackgrass plant response rating (blackgrass; 62 g ai/ha) | Plant response rating, Blackgrass (blackgrass) | Plant response rating (scale of 0 to 100), Ragweed (ragweed) | Plant response rating (scale of 0 to 100), Soybean (soybean)
20: Wheat plant response rating (wheat [1]; 31 g ai/ha, visual rating)
70: Plant response rating, Wheat (wheat [1]) | Plant response rating (scale of 0 to 100), Corn (corn) | Plant response rating (scale of 0 to 100 where 0 is no effect and 100 is complete control), Chickweed (chickweed)
85: Plant response rating (scale of 0 to 100), Wheat (wheat [1]) | Plant response rating, Chickweed (chickweed; [4]) | Plant response rating, Ragweed (ragweed) | Plant response rating, Foxtail, Giant (foxtail, giant; [3])
